Data published in the supplement of paper PMC10307832.

What was measured:
Assay in all cases: relative viability (nuclei count vs DMSO), 5 days (fraction); higher = more cells survive
[1] = compound: CCN(CCO)CCCC(C)Nc1ccnc2cc(Cl)ccc12 [Hydroxychloroquine] + CC(=O)Nc1cccc(-n2c(=O)n(C3CC3)c(=O)c3c(Nc4ccc(I)cc4F)n(C)c(=O)c(C)c32)c1 [Trametinib] (partner 0.02 µM)
In short: (§1)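 Relative viability was taken as the ratio of nuclei in treated wells to nuclei in vehicle wells. Lung cancer cell lines in 1536-well plates received compounds by pin tool one day after seeding, either one drug alone or a fixed anchor-drug dose plus five library-drug doses (not always all listed) in √10 steps. Nuclei were counted on 4× images after 5 days of treatment, and values are medians of duplicate plates.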

[2] = compound: CCN(CCO)CCCC(C)Nc1ccnc2cc(Cl)ccc12 [Hydroxychloroquine] + COc1cccc2cc(-c3nc([C@H]4CC[C@H](C(=O)O)CC4)n4ncnc(N)c34)[nH]c12 [OSI-027] (partner 0.5 µM)
In short: as §1

[3] = compound: CCN(CCO)CCCC(C)Nc1ccnc2cc(Cl)ccc12 [Hydroxychloroquine] + C[C@@H](Oc1cc(-c2cnn(C3CCNCC3)c2)cnc1N)c1c(Cl)ccc(F)c1Cl [Crizotinib] (partner 1 µM)
In short: as §1

[4] = compound: CCN(CCO)CCCC(C)Nc1ccnc2cc(Cl)ccc12 [Hydroxychloroquine] + N=C(N)NC(=N)NCCc1ccccc1 [Phenformin] (partner 250 µM)
In short: as §1

Row | Cell Line | relative viability ([1]; first compound 0.5 µM) | relative viability ([1]; first compound 1.581 µM) | relative viability ([1]; first compound 5 µM) | relative viability ([1]; first compound 15.81 µM) | relative viability ([1]; first compound 50 µM) | relative viability ([2]; first compound 0.5 µM) | relative viability ([2]; first compound 1.581 µM) | relative viability ([2]; first compound 5 µM) | relative viability ([2]; first compound 15.81 µM) | relative viability ([2]; first compound 50 µM) | relative viability ([3]; first compound 0.5 µM) | relative viability ([3]; first compound 1.581 µM) | relative viability ([3]; first compound 5 µM) | relative viability ([3]; first compound 15.81 µM) | relative viability ([3]; first compound 50 µM) | relative viability ([4]; first compound 0.5 µM) | relative viability ([4]; first compound 1.581 µM) | relative viability ([4]; first compound 5 µM) | relative viability ([4]; first compound 15.81 µM) | relative viability ([4]; first compound 50 µM)
1 | NCI-H3122 | 0.19 | 0.215 | 0.2 | 0.319 | 0.232 | 1.05 | 0.962 | 1.12 | 1.2 | 1.18 | 0.283 | 0.275 | 0.275 | 0.252 | 0.279 | 0.379 | 0.364 | 0.373 | 0.358 | 0.344
2 | PC-3 [JPC-3] | 0.694 | 0.69 | 0.668 | 0.723 | 0.681 | 0.743 | 0.642 | 0.82 | 0.745 | 0.924 | 0.999 | 1 | 1.06 | 0.98 | 1.16 | 0.448 | 0.457 | 0.448 | 0.432 | 0.507
3 | PC-14 | 0.708 | 0.846 | 0.667 | 0.798 | 0.687 | 0.958 | 0.586 | 0.872 | 0.861 | 0.927 | 0.856 | 0.917 | 0.919 | 0.907 | 0.916 | 0.676 | 0.573 | 0.551 | 0.595 | 0.601
4 | RERF-LC-KJ | 0.858 | 0.826 | 0.825 | 0.83 | 0.886 | 0.587 | 0.5 | 0.537 | 0.631 | 0.609 | 0.942 | 0.785 | 0.786 | 0.848 | 0.81 | 0.4 | 0.402 | 0.406 | 0.402 | 0.408
5 | SK-LU-1 | 0.454 | 0.374 | 0.508 | 0.462 | 0.404 | 0.394 | 0.348 | 0.337 | 0.334 | 0.34 | 0.948 | 0.895 | 0.911 | 0.928 | 0.938 | 0.505 | 0.528 | 0.544 | 0.538 | 0.429
6 | SK-MES-1 | 0.558 | 0.52 | 0.538 | 0.559 | 0.553 | 0.623 | 0.381 | 0.712 | 0.67 | 0.589 | 0.933 | 0.955 | 1.13 | 1.1 | 1.03 | 0.668 | 0.741 | 0.723 | 0.693 | 0.635
7 | SW 1573 | 0.617 | 0.595 | 0.55 | 0.625 | 0.499 | 0.591 | 0.524 | 0.674 | 0.649 | 0.826 | 0.782 | 0.839 | 0.872 | 0.76 | 0.753 | 0.356 | 0.333 | 0.402 | 0.402 | 0.368
8 | UMC-11 | 0.642 | 0.431 | 0.762 | 0.669 | 0.741 | – | 0.402 | 0.486 | 0.403 | 0.538 | 0.586 | 0.573 | 0.69 | 0.664 | 0.846 | – | 0.305 | 0.308 | 0.315 | 0.335
